# Earlier results, collected in patent US8785634B2, “Spiropiperidine prolylcarboxypeptidase inhibitors” (Merck Sharp & Dohme Corp, priority 2010, dated 2014).
# What was measured:
# [1] = in vivo
# [2] = test system: rats; conditions: intracerebroventricular
# [3] = test system: obese, leptin deficient mice; conditions: systemic administration
Compound,"weight loss, of body weight, drug compared to placebo [1]",overnight food intake [2],overnight food intake [3]
CCN[C@@H](C)Cc1cccc(C(F)(F)F)c1 [dexfenfluramine],5%-10%,,
t-butyl carbamate-prolyl prolinal [BPP],,suppression of overnight food intake,suppression of overnight food intake
CC(C)CC(N(C)C)C1(c2ccc(Cl)cc2)CCC1 (stereo not drawn) [sibutramine],5%-10%,,
CCCCCCCCCCC[C@@H](C[C@@H]1OC(=O)[C@H]1CCCCCC)OC(=O)[C@H](CC(C)C)NC=O [orlistat],5%-10%,,
CC(C)(N)Cc1ccccc1 [phentermine],5%-10%,,
